Laboratory results reported in patent publication US8071651B2, “5-amino-4-hydroxy-7-(imidazo [1,2-A] pyridin-6-ylmethyl)-8-methyl-nonamide derivatives and related compounds as renin inhibitors for the treatment of hypertension” (Novartis AG, priority 2005, dated 2011).

The compounds below were run against T1, renin (Homo sapiens, UniProt P00797) (assay: in vitro test of Nussberger et al.: formation of angiotensin I in human plasma, determined by radio-immunoassay). Settings: concentration of inhibitor which reduces the formation of angiotensin I in human plasma by 50%.
T1 construct: This test measures the formation of angiotensin I in human plasma; from tissue; host or cells: human plasma
T1 sequence (P00797 67-406): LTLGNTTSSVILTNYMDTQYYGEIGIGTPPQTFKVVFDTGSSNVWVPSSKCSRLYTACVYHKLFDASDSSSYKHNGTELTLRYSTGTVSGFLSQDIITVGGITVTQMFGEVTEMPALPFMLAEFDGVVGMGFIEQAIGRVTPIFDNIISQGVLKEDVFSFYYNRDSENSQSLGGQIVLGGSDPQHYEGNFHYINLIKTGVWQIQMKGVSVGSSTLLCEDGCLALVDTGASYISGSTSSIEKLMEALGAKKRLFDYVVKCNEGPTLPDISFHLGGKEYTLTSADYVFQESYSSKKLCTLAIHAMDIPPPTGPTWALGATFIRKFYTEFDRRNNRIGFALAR
Format: biochemical
Protocol: The effect of renin inhibitors is detected inter alia experimentally by means of in vitro tests where the reduction in the formation of angiotensin I is measured in various systems (human plasma, purified human renin together with synthetic or natural renin substrate). The following in vitro test of Nussberger et al. (1987) J. Cardiovascular Pharmacol., Vol. 9, pp. 39-44, is used, inter alia. This test measures the formation of angiotensin I in human plasma. The amount of angiotensin I formed is determined in a subsequent radio-immunoassay. The effect of inhibitors on the formation of angiotensin I is tested in this system by adding various concentrations of these substances. The IC50 is defined as the concentration of the particular inhibitor which reduces the formation of angiotensin I by 50%. The compounds of the present invention show inhibitory effects in the in vitro systems at minimal concentrations of about 10^−6 to about 10^−10 mol/l.

Compound | IC50 [nM]
COCCCCc1cc(CC(CC(N)C(O)CC(C(=O)NCC2CCOCC2)C(C)C)C(C)C)cc(C)n1 (centres unmarked) [Example 32JJJ] | 2.6
COCCCCc1cc(CC(CC(N)C(O)CC(C(=O)NCC2C3COCC23)C(C)C)C(C)C)cnc1OC (centres unmarked) [Example 36BBBB] | 4.8

The next lines start with the values.

IC50 [nM] | Compound
3.1 | COCCCCc1cc(CC(CC(N)C(O)CC(C(=O)NC2C3COCC32)C(C)C)C(C)C)cnc1OC (centres unmarked) [Example 36DDDD]
2.9 | COCCCCc1cc(CC(CC(N)C(O)CC(C(=O)NCC2CC23CCOCC3)C(C)C)C(C)C)cnc1OC (centres unmarked) [Example 36HHHH]
3.5 | COCCCCc1cc(CC(CC(N)C(O)CC(C(=O)NCC2CC23CCOCC3)C(C)C)C(C)C)cnc1OC (centres unmarked) [Example 36IIII]
